“And” between values parts separate entries of the source, which are not always exact repeats. Equal values may be shown once. “Also recorded” adds a separate entry of the source.
Tests used:
[1] = tested on: HIV-1 RT mutant resistance test vector T69SSA; assay: Phenotypic susceptibility assay, site directed RTV T69SSA; assay type: cell-based; details: RTV with T69SSA vs wild type RTV; for Average fold reduction in susceptibility: 3 replicates
Description: (§1) Resistance tests were carried out with resistance test vectors using two host cell types. Resistance test vector viral particles were produced by a first host cell (the resistance test vector host cell) that was prepared by transfecting a packaging host cell with the resistance test vector and the packaging expression vector. The resistance test vector viral particles were then used to infect a second host cell (the target host cell) in which the expression of the indicator gene is measured.
(§2) The resistance test vectors containing a functional luciferase gene cassette were constructed and host cells were transfected with the resistance test vector DNA. The resistant test vectors contained patient-derived reverse transcriptase and protease sequences that were either susceptible or resistant to the antiretroviral agents, such as nucleoside reverse transcriptase inhibitors, non-nucleoside reverse transcriptase inhibitors and protease inhibitors. The resistance test vector viral particles produced by transfecting the resistance test vector DNA into host cells, either in the presence or absence of protease inhibitors, were used to infect target host cells grown either in the absence of NRTI or NNRTI or In the presence of increasing concentrations of the drug. The amount of luciferase activIty produced in infected target host cells in the presence of drug was compared to the amount of luciferase produced in infected target host cells in the absence of drug. Drug resistance was measured as the amount of drug required to inhibit by 50% the luciferase activity detected in the absence of drug (Inhibitory concentration 50%, IC50). The IC50 values were determined by plotting percent drug inhibition vs. log 10 drug concentration.
(§3) Host cells were seeded in 10-cm-diameter dishes and were transfected several days after plating with resistance test vector plasmid DNA and the envelope expression vector. Transfections were performed using a calcium-phosphate precipitation procedure. The cell culture media containing the DNA precipitate was replaced with fresh medium, from one to 24 hours, after transfection. Cell culture media containing resistance test vector viral particles was harvested one to four days after transfection and was passed through a […] filter before being stored at −80° C. HIV capsid protein (p24) levels in the harvested cell culture media were determined by an EIA method as described by the manufacturer (SIAC; Frederick, Md.). Before infection, target cells (293 and 293/T) were plated in cell culture media. Control infections were performed using cell culture media from mock transfections (no DNA) or transfections containing the resistance test vector plasmid DNA without the envelope expression plasmid. One to three or more days after infectIon the media was removed and cell lysis buffer (Promega) was added to each well. Cell lysates were assayed for luciferase activity (FIG. 3). The inhibitory effect of the drug was determined using the following equation:
(§4) % luciferase inhibition=1−(RLUluc[drug]÷RLUluc)×100
(§5) where RLUluc [drug] is the relative light unit of luciferase activity in infected cells in the presence of drug and RLUluc is the Relative Light Unit of luciferase activity in infected cells in the absence of drug. IC50 values were obtained from the sigmoidal curves that were generated from the data by plotting the percent inhibition of luciferase activity vs. the log 10 drug concentration. The drug inhibition curves are shown in (FIG. 3).
(§6) Genotypic changes that are observed to correlate with changes in phenotypic patterns of drug susceptibility are evaluated by construction of resistance test vectors containing the specific mutation on a defined, wild-type (drug susceptible) genetic background. Mutations may be incorporated alone and/or in combination with other known drug resistance mutations that are thought to modulate the susceptibility of HIV to a certain drug or class of drugs. […]

[2] = tested on: HIV-1 RT mutant resistance test vector 41 + 62 + 69 + 75S + 210 + 215; assay: Phenotypic susceptibility assay, site directed RTV 41 + 62 + 69 + 75S + 210 + 215; assay type: cell-based; details: RTV with 41 + 62 + 69 + 75S + 210 + 215; 1 replicate
Description: as §1, §2, §3, §4, §5, §6

[3] = tested on: HIV-1 RT mutant resistance test vector M41L-T69SSA-T215Y-RTV; assay: Phenotypic susceptibility assay, site directed RTV M41L+T69SSA+T215Y; assay type: cell-based; details: for Average fold reduction in susceptibility: RTV with 41 + 69 + 215 (M41L, T69SSA, T215Y), 2 replicates; for effect on susceptibility (words): RTV with M41L+T69SSA+T215Y
Description: as §1, §2, §3, §4, §5, §6

[4] = tested on: HIV with RT Val75→Thr mutation; details: cited from earlier work
[5] = tested on: HIV-1 RT mutant resistance test vector A62V-T69SSA-L74V-RTV; assay: Phenotypic susceptibility assay, site directed RTV A62V-T69SSA-L74V; assay type: cell-based; details: for Average fold reduction in susceptibility: RTV with 62 + 69 + 74V, 1 replicate
Description: as §1, §2
as §3, with “Cell lysates were assayed for luciferase activity (FIG. 3).” left out
as §4
as §5, with “The drug inhibition curves are shown in (FIG. 3).” left out

[6] = tested on: HIV-1 RT mutant resistance test vector 41 + 184 + 215; assay: Phenotypic susceptibility assay, site directed RTV 41 + 184 + 215; assay type: cell-based; details: RTV with 41 + 184 + 215; 3 replicates
Description: as §1, §2, §3, §4, §5, §6

[7] = tested on: HIV with RT Met184→Val mutation; details: Met184→Val (M184V); cited from earlier work

Row | SMILES | effect on susceptibility (words) [1] | Average fold reduction in susceptibility [1] | Average fold reduction in susceptibility [2] [fold] | Average fold reduction in susceptibility [3] | effect on susceptibility (words) [3] | fold increase in IC50 [4] | Average fold reduction in susceptibility [5] | Average fold reduction in susceptibility [6] [fold] | fold increase in IC50 / reduction in susceptibility [7] | susceptibility [4] | effect on susceptibility (words) ([5]; L74V introduced with A62V+T69SSA)
1 | Cc1cn([C@H]2C=C[C@@H](CO)O2)c(=O)[nH]c1=O [d4T, stavudine] | did not reduce d4T susceptibility | 2 fold and less than two-fold and 1.58 fold | 14.13 | 5 fold and 5.20 fold | significant decrease in both d4T and AZT susceptibility | seven-fold | 1.5 fold and 1.50 fold | 1.18 | – | – | –
2 | Nc1ccn([C@H]2CC[C@@H](CO)O2)c(=O)n1 [ddC, zalcitabine] | – | 1.55 fold | 2.58 | 1.41 fold | – | – | 1.8 fold and 1.80 fold | 1.73 | four-fold to eight-fold | reduced susceptibility to both ddI and ddC | –
3 | Cc1cn([C@H]2C[C@H](N=[N+]=[N-])[C@@H](CO)O2)c(=O)[nH]c1=O [AZT, zidovudine] | small but significant change in susceptibility; also recorded: reduced AZT susceptibility slightly | approximately two-fold and 1.98 fold | >1000 | 160 fold and 140 fold and 141.71 fold | significant decrease in both d4T and AZT susceptibility | – | – | 2.77 | – | – | shift of the susceptibility back to wild-type
4 | Nc1nc(NC2CC2)c2ncn([C@H]3C=C[C@@H](CO)C3)c2n1 [ABC, abacavir] | – | 2.52 fold | 14.21 | 9.69 fold | – | – | – | 3.02 | 2-5 fold | – | –
5 | O=c1[nH]cnc2c1ncn2[C@H]1CC[C@@H](CO)O1 [ddI, didanosine] | – | 1.32 fold | 5.12 | 2.02 fold | – | – | – | 1.35 | four-fold to eight-fold | reduced susceptibility to both ddI and ddC | –
